Laboratory results reported in publication PMC1972348, “Pharmacokinetics and cytotoxicity of RSU-1069 in subcutaneous 9L tumours under oxic and hypoxic conditions” (British Journal of Cancer, 1991).
Where two headings read alike, the source gives them in different places.

What was measured:
[1] = design: method as in Wong et al., 1989; 1990; settings: sc 9L tumours, ref Wong et al., 1989; 1990; cited from earlier work
[2] = test system: sc 9L tumour cells; design: method as in Wong et al., 1989; 1990; settings: Table I, clamped sc 9L tumours, ref Wong et al., 1989; 1990; cited from earlier work
[3] = ref Horwich et al., 1986, cited from earlier work
[4] = test system: 9L cells; assay: In vitro colony formation of 9L cells treated at defined oxygen concentrations; assay type: cell-based, rat
Source text: Br 1 acr(91,6,4448?McilnPesLd,19 Pharmacokinetics and cytotoxicity of RSU-1069 in subcutaneous 9L tumours under oxic and hypoxic conditions K-H. Wong',*, C.J. Koch2, C. A. Wallen' & K.T. Wheeler' 'Experimental Radiation Oncology, Department of Radiology, Bowman Gray School of Medicine, Winston-Salem, North Carolina 27103; and 2Department of Radiation Oncology, University of Pennsylvania, Philadelphia, Pennsylvania 19104, USA. Summary The acute toxicity, pharmacokinetics and hypoxic cytotoxicity of RSU-1069 were investigated using the subcutaneous (sc) rat 9L tumour model. The pharmacokinetics were studied after i.p. injection of RSU-1069 (20mgkg-' or 100mgkg-'). […] The 2-nitroimidazoles, originally designed as electron affinic radiosensitisers, have been reported to selectively kill hypoxic cells (Adams et al., 1980). This hypoxic cytotoxicity appears to be related to the anaerobic bioreductive metabolism of the drugs that releases reactive cytotoxic metabolites (Clark et al., 1980; Brown, 1982). By adding an alkylating group to the side chain of a 2-nitroimidazole, Adams et al. (1984a,b) postulated that a more efficient chemopotentiator and killer of hypoxic cells could be made without the compound losing its ability to sensitise hypoxic cells to ionising radiation. RSU-1069 was one of the compounds synthesised to achieve this goal. […]

[5] = test system: KHT and RIF tumours; design: method as in Bremner et al. (1990); settings: tumours clamped 60 min after 80 mg kg-1, ref Bremner et al. (1990); cited from earlier work
[6] = test system: hypoxic cells; design: method as in Adams et al., 1984a; settings: estimated at plasma level of 2-4 µg ml-1, ref Adams et al., 1984a; cited from earlier work
[7] = mice, i.p. doses of 50 and 100 mg kg-1, ref Walton & Workman (1988); cited from earlier work
[8] = test system: other in vitro cells; design: method as in Stratford et al., 1986; settings: ref Stratford et al., 1986; cited from earlier work
[9] = test system: sc 9L tumour cells; design: AUC30: unit not given beside the values
Source text: (§1) Br 1 acr(91,6,4448?McilnPesLd,19 Pharmacokinetics and cytotoxicity of RSU-1069 in subcutaneous 9L tumours under oxic and hypoxic conditions K-H. Wong',*, C.J. Koch2, C. A. Wallen' & K.T. Wheeler' 'Experimental Radiation Oncology, Department of Radiology, Bowman Gray School of Medicine, Winston-Salem, North Carolina 27103; and 2Department of Radiation Oncology, University of Pennsylvania, Philadelphia, Pennsylvania 19104, USA. Summary The acute toxicity, pharmacokinetics and hypoxic cytotoxicity of RSU-1069 were investigated using the subcutaneous (sc) rat 9L tumour model. The pharmacokinetics were studied after i.p. injection of RSU-1069 (20mgkg-' or 100mgkg-'). […] The 2-nitroimidazoles, originally designed as electron affinic radiosensitisers, have been reported to selectively kill hypoxic cells (Adams et al., 1980). This hypoxic cytotoxicity appears to be related to the anaerobic bioreductive metabolism of the drugs that releases reactive cytotoxic metabolites (Clark et al., 1980; Brown, 1982). By adding an alkylating group to the side chain of a 2-nitroimidazole, Adams et al. (1984a,b) postulated that a more efficient chemopotentiator and killer of hypoxic cells could be made without the compound losing its ability to sensitise hypoxic cells to ionising radiation. RSU-1069 was one of the compounds synthesised to achieve this goal. RSU-1069 has an aziridine group attached via a side chain to a 2-nitroimidazole. […] Although the ability to kill cells in vivo has been studied (Adams et al., 1984a,b; Chaplin et al., 1986; Olive et al., 1987; Cole et al., 1989; Siemann, 1989) the presence of both oxic and hypoxic cells in these tumours has made it difficult to determine if the relative efficiency of RSU-1069 for killing oxic and hypoxic cells in vivo is similar to that reported in vitro. In this report, we used the subcutaneous (sc) 9L tumour model to study the relative ability of RSU-1069 to kill oxic and hypoxic tumours cells in vivo.

[10] = B16 and HX 118 melanomas, ref Deacon et al., 1986; Walling et al., 1989; cited from earlier work
[11] = Source text: as §1
[12] = KHT fibrosarcoma, ref Walton & Workman, 1988; cited from earlier work
[13] = 20 mg kg-1 i.p., unclamped tumours
[14] = 100 mg kg-1 i.p., unclamped tumours
[15] = both doses (20 and 100 mg kg-1)

## COCC(O)Cn1ccnc1[N+](=O)[O-] (stereo not shown) [MISO, misonidazole]
[1]
  time to return to unclamped tumour level after release of the clamp: about 45 min
[2]
  AUC30: 877 µg·h/mL

## O=[N+]([O-])c1nccn1CC(O)CN1CC1 (stereo not shown) [RSU-1069]
[3]; clinical trial, after a 70 mg kg-1 dose (so in the source)
  peak plasma level: 2 to 4 µg/mL
[3]; phase I clinical trial
  dose limited by nongenotoxic side-effects such as emesis: less than 70 mg m-2
[4]; 2.1% O2 vs less than 7.5 x 10(-3)% O2
  SER in vitro: approximately 50
[4]; 21% O2 vs less than 7.5 x 10(-3)% O2
  SER in vitro: approximately 100
[5]
  increase in time for tumours to reach four times their treatment size: 3-4 fold
[6]
  radiosensitising enhancement ratio: 1.2
[7]
  difference in the volume of distribution: 2 fold
  increase in the elimination t1/2: 37%
[8]
  SER in vitro: ≤ 100
[9]; 20 mg kg-1, clamped tumours
  cell survival: approximately 25%
[9]; 20 mg kg-1, unclamped tumours
  cell survival: ~100%
[9]; 50 mg kg-1, clamped for various times
  cell-kill kinetics as a function of clamping time: little additional cell kill was achieved after 40 min of clamping
[9]; 50 mg kg-1, hypoxic (clamped 2 h)
  surviving fraction: ~0.001
[9]; 50 mg kg-1, oxic (unclamped)
  surviving fraction: about 0.6
[9]; rat, in vivo
  AUC30: 0.15
[9]; rat, in vivo, sc
  efficiency for killing hypoxic sc 9L tumour cells in situ relative to misonidazole or SR2508: 300-1000 fold
  sensitiser enhancement ratio (SER), hypoxic vs oxic sc 9L cells in vivo: 4.8
[10]
  tumour/plasma ratio: 3.7-4
[11]; 20 mg kg-1, in 60 min
  maximum tumour/plasma ratio: six
[11]; 20 mg kg-1 i.p.
  plasma elimination t1/2: 47.8 ± 6.3 min
  time to peak plasma concentration: about 10 min
  time to peak tumour concentration: 10 min
[11]; 20 mg kg-1 i.p., rat
  peak plasma concentration: 3 micrograms ml-1
[11]; [13]
  peak tumour concentration: 4 micrograms g-1
  tumour elimination t1/2: 41.9 ± 6.1 min
[11]; 100 mg kg-1
  time to return to unclamped tumour concentration after release of the clamp: about 60 min
[11]; 100 mg kg-1, about 90 min after clamping
  tumour/plasma ratio in clamped tumours: 0.1
[11]; 100 mg kg-1, beyond 120 min after clamping
  drug concentration in clamped tumours: undetectable
[11]; 100 mg kg-1, unclamped, in about 45 min
  peak tumour/plasma ratio: exceeded four
[11]; 100 mg kg-1 i.p.
  time to peak plasma concentration: approximately 25 min
[11]; 100 mg kg-1 i.p., rat
  peak plasma concentration: 40 micrograms ml-1
[11]; 100 mg kg-1 i.p., tumour clamped 30 min after administration
  tumour elimination t1/2: 10.9 ± 1.4 min
[11]; 100 mg kg-1 i.p., tumour unclamped
  plasma elimination t1/2: 39.3 ± 11.1 min
[11]; [14]
  peak tumour concentration: 50 micrograms g-1
  time to peak tumour concentration: 30 min
  tumour elimination t1/2: 36.1 ± 9.6 min
[11]; [15]
  constant unclamped tumour/plasma ratio after the maximum: about 2
  maximum unclamped tumour/plasma ratio: 4-6
[11]; rat, in vivo
  elimination from clamped sc 9L tumours faster than MISO or SR-2508: four
  peak plasma concentration at 100 mg kg-1 relative to 20 mg kg-1: about 13 times
  peak tumour concentration at 100 mg kg-1 relative to 20 mg kg-1: about 13 times
[12]
  tumour/plasma ratio: 0.2-0.4

## O=C(Cn1ccnc1[N+](=O)[O-])NCCO [SR-2508]
[1]
  time to return to unclamped tumour level after release of the clamp: about 90 min
[2]
  AUC30: 748 µg·h/mL
